# Measurements taken from US20250313563A1, “GLYCOGEN SYNTHASE KINASE 3 INHIBITORS AND USES THEREOF” (The Broad Institute, Inc., priority 2022, published 2025).
# pIC50: −log10 of the molar value. Read-outs that look alike come from different tables or passages of the source.
# Tests used:
# [1] = molecular target: GSK3α (GST-full length GSK3α) (Homo sapiens (Human), UniProt P49840); assay: GSK3α TR-FRET kinase assay; assay type: biochemical; settings: 1 nM GSK3α, 4 μM ATP, 30 minute preincubation, read-out: GSK3-A TR-FRET BIOCHEMICAL (TR-FRET)
# Summary of the method: (§1)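 Compound was preincubated 30 min with 1 nM GST-GSK3 enzyme. Reaction ran 100 min at ambient temperature in Tris pH 7.5/MgCl2 with 200 nM biotinylated pS645-glycogen synthase 631-650 peptide and ATP (4 μM GSK3α, 2 μM GSK3b, or 1 mM). The EDTA-stopped reaction was read by TR-FRET (Tb-anti-pSer641/streptavidin-d2), and IC50s were fitted.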
# [2] = molecular target: GSK3b (GST-full length GSK3b) (Homo sapiens (Human), UniProt P49841); assay: GSK3b TR-FRET kinase assay; assay type: biochemical; settings: 1 nM GSK3b, 2 μM ATP, 30 minute preincubation, read-out: GSK3-B TR-FRET BIOCHEMICAL (TR-FRET)
# Summary of the method: as §1
# Chain of GSK3b (GST-full length GSK3b) (P49841 whole entry): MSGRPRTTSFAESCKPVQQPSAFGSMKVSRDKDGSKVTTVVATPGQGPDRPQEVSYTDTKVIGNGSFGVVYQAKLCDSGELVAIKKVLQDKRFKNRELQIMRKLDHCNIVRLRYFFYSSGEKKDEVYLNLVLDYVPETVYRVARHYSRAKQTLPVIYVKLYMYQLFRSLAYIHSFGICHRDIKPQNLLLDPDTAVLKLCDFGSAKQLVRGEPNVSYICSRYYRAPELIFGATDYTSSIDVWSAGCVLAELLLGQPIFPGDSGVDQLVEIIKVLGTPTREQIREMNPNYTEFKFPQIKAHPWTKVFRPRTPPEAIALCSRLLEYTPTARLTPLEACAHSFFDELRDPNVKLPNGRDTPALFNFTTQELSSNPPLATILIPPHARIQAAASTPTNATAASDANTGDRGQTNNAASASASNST
# Chain of GSK3α (GST-full length GSK3α) (P49840 whole entry): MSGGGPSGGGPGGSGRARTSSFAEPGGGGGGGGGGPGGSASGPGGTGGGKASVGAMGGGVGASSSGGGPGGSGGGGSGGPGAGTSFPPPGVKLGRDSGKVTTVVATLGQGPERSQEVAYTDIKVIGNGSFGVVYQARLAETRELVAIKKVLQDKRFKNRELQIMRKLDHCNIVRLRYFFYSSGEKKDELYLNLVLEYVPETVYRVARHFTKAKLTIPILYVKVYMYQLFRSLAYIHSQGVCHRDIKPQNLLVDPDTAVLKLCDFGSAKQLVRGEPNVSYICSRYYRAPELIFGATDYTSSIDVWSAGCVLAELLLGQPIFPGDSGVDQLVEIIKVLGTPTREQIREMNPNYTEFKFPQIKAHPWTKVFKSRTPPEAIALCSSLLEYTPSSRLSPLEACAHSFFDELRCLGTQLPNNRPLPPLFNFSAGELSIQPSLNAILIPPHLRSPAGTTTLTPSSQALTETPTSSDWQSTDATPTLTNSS
pIC50 ([1]; IC50),pIC50 ([2]; IC50),SMILES,also measured
< 5.30,< 5.30,CC[C@]1(c2cccc(C(F)(F)F)c2)C2=C(CN(C)C2=O)Nc2n[nH]cc21 [Compound 945368],
≥ 7.00,6.00 to 7.00,CCC1(c2cccc(C(F)(F)F)c2)C2=C(Nc3n[nH]cc31)C(C)NC2=O (centres unmarked) [Compound 945378],
6.00 to 7.00,5.30 to 6.00,CCC1(c2cccc(C(F)(F)F)c2)C2=C(Nc3n[nH]cc31)C(C)NC2=O (centres unmarked) [Compound 945379],
< 5.30,< 5.30,CC[C@]1(c2cccc(C(F)(F)F)c2)C2=C(Nc3n[nH]cc31)[C@@H](C)NC2=O [Compound 945380],
< 5.30,< 5.30,CC[C@]1(c2cccc(C(F)(F)F)c2)C2=C(Nc3n[nH]cc31)[C@H](C)NC2=O [Compound 945381],
≥ 7.00,≥ 7.00,CCC1(c2cccc(S(=O)(=O)C(C)C)c2)C2=C(CC(C)(C)NC2=O)Nc2n[nH]cc21 (centres unmarked) [Compound 945464],

# Second part, the compound before the results:
SMILES,pIC50 ([1]; IC50),pIC50 ([2]; IC50),also measured
CC[C@@]1(c2cccc(C(F)(F)F)c2)C2=C(CN(c3ccccc3)C2=O)Nc2n[nH]cc21 [Compound 945376],< 5.30,< 5.30,
CCC1(c2cccc(C(F)(F)F)c2)C2=C(CN(c3ccccc3)C2=O)Nc2n[nH]cc21 (centres unmarked) [Compound 945377],6.00 to 7.00,5.30 to 6.00,
CCC1(c2cccc(C(F)(F)F)c2)C2=C(Nc3n[nH]cc31)C(C)CNC2=O (centres unmarked) [Compound 945382],≥ 7.00,6.00 to 7.00,
CC[C@@]1(c2cccc(C(F)(F)F)c2)C2=C(Nc3n[nH]cc31)[C@H](C)CNC2=O [Compound 945383],≥ 7.00,6.00 to 7.00,
CCC1(c2cccc(C(F)(F)F)c2)C2=C(Nc3n[nH]cc31)C(C)CNC2=O (centres unmarked) [Compound 945384],5.30 to 6.00,< 5.30,
CC[C@]1(c2cccc(C(F)(F)F)c2)C2=C(Nc3n[nH]cc31)[C@H](C)CNC2=O [Compound 945385],< 5.30,< 5.30,
CC1(C)CC(=O)C2=C(C1)Nc1n[nH]cc1C21CCC(C(=O)N2CCCC2)CC1 (centres unmarked) [Compound 945394],,,pIC50 ([1]; Table 16): 6.00 to 7.00; pIC50 ([2]; Table 16): 5.30 to 6.00
CN(C)C(=O)C1CCC2(CC1)C1=C(CC(C)(C)CC1=O)Nc1n[nH]cc12 (centres unmarked) [Compound 945395],,,"pIC50 ([1]; Table 16, IC50): 6.00 to 7.00; pIC50 ([2]; Table 16, IC50): 5.30 to 6.00"
CC1(C)CC(=O)C2=C(C1)Nc1n[nH]cc1C21CCC(C(=O)N2CCCC2)CC1 (centres unmarked) [Compound 945396],,,pIC50 ([1]; Table 16): 6.00 to 7.00; pIC50 ([2]; Table 16): 6.00 to 7.00
CNC(=O)C1CCC2(CC1)C1=C(CC(C)(C)CC1=O)Nc1n[nH]cc12 (centres unmarked) [Compound 945397],,,pIC50 ([1]; Table 16): 6.00 to 7.00; pIC50 ([2]; Table 16): 6.00 to 7.00
CC1(C)CC(=O)C2=C(C1)Nc1n[nH]cc1C21COC2(CN(C(=O)C3CCOCC3)C2)C1 (centres unmarked) [Compound 945407],≥ 7.00,6.00 to 7.00,
CCC1(c2cccc(-c3ccnc(C)c3OC)c2)C2=C(CC(C)(C)CC2=O)Nc2n[nH]cc21 (centres unmarked) [Compound 945458],,,pIC50 ([1]; Table 16): ≥ 7.00; pIC50 ([2]; Table 16): ≥ 7.00
CCC1(c2cccc(-c3cn[nH]c3)c2)C2=C(CC(C)(C)NC2=O)Nc2n[nH]c(C)c21 (centres unmarked) [Compound 945459],≥ 7.00,≥ 7.00,
CCC1(c2cccc(-c3cn(C)nc3C)c2)C2=C(CC(C)(C)NC2=O)Nc2n[nH]c(C)c21 (centres unmarked) [Compound 945460],≥ 7.00,≥ 7.00,
CCC1(c2cccc(-c3ccncc3C)c2)C2=C(CC(C)(C)NC2=O)Nc2n[nH]cc21 (centres unmarked) [Compound 945461],≥ 7.00,≥ 7.00,
CCC1(c2cccc(-c3c(C)nn(C)c3C)c2)C2=C(CC(C)(C)NC2=O)Nc2n[nH]cc21 (centres unmarked) [Compound 945462],≥ 7.00,≥ 7.00,
CCC1(c2cccc(N(C)C3CC3)c2)C2=C(CC(C)(C)CC2=O)Nc2n[nH]cc21 (centres unmarked) [Compound 945466],,,pIC50 ([1]; Table 16): 6.00 to 7.00; pIC50 ([2]; Table 16): 5.30 to 6.00
CCC1(c2cccc(-c3cc(C)ncc3OC)c2)C2=C(CC(C)(C)CC2=O)Nc2n[nH]cc21 (centres unmarked) [Compound 945468],,,pIC50 ([1]; Table 16): ≥ 7.00; pIC50 ([2]; Table 16): 6.00 to 7.00
CC[C@@]1(c2cccc(-c3ccncc3CO)c2)C2=C(CC(C)(C)CC2=O)Nc2n[nH]cc21 [Compound 945469],,,pIC50 ([1]; Table 16): ≥ 7.00; pIC50 ([2]; Table 16): ≥ 7.00
